Source: patent publication US8524674B2, “Method of improving the conditioned reflex habit, the muscle tonus, or the motion coordination of a patient after suffering trauma to the brain cortex” (Obschestvo S Ogranichennoi Otvetstvennostyu “Sia Peptides”, priority 2006, dated 2013)
Several values for one entry are separate records, joined by “and”; a condition that tells them apart may be missing. Equal entries are not always repeated. Residues, ends and D or L forms follow the SMILES beside them.

Legend:
[1] = system: white mongrel male mice; conditions: mouse, in vivo
Experimental: The study of acute toxicity was performed on 72 white mongrel male mice with body weight of 20-22 g. The animals were randomly subdivided into 6 equal groups. The substance was administered to the animals once, intramuscularly, in the doses of 1 mg/kg, 2 mg/kg, 3 mg/kg, 4 mg/kg, 5 mg/kg in 0.25 ml of sterile 0.9% NaCl solution. The control animals received 0.9% NaCl solution in the same volume.

[2] = system: white mongrel male rats; assay: Study of sub-acute toxicity, 90 days; format: in vivo; conditions: long-term administration, doses exceeding the therapeutic one by 100-1000 times
Experimental: The study of sub-acute toxicity was performed on 65 white mongrel male rats with body weight of 160-210 g. […] Morphology and properties of the animals' peripheral blood were studied before the administration of the substance, as well as on the 30th, 60th and 90th day after the beginning of the administration. Upon completion of the experiment biochemical and coagulologic indices of the blood were also evaluated.

[3] = system: brain cortex explants; assay: Development of brain cortex explants (area index); format: cell-based, Wistar rats
Experimental: This study was performed on 32 fragments of brain cortex from Wistar rats with body weight of 150-200 g. Nutritional medium for explants cultivation consisted of 35% Eagle's solution, 25% calf fetal serum, 35% Hank's solution, 5% chicken embryonic extract, with the addition of glucose (0.6%), insulin (0.5 units/ml), penicillin (100 units/ml), glutamine (2 mM). […] Peptide H-Glu-Asp-Arg-OH was added into the medium, reaching ultimate concentration of 1, 10 and 100 ng/ml.
Area index (AI), i.e. the ratio of total explant area together with the growth zone to the initial area of brain cortex fragment served as the criterion of biologic activity. The statistical significance of the difference between the compared mean AI values was evaluated using Student's t-criterion. AI values were expressed in percent, control AI values being considered as 100%.

[4] = system: rats with heavy compression cranial trauma; assay: Reparative processes in rat brain cortex after acute heavy cranial trauma (CAAR, rotating rod); format: in vivo, white mongrel rats
Text: The effect of peptide H-Glu-Asp-Arg-OH on reparative processes in the brain was estimated on the pattern of acute heavy cranial trauma. The dynamics of central nervous system functions restoration were identified by testing motion coordination and muscle tonus of the animals, as well as their ability to learning and reproducing the conditioned reflex habit.
24 white mongrel rats were subjected to heavy compression cranial trauma from a falling leaden bob.
The estimation of the rats' ability to learn and reproduce the habits was performed using the test of conditioned active avoidance reflex (CAAR). Muscle tonus and motion coordination were tested by rotating the rats on a rod with increasing speed and measuring the time of their holding on to the rod.

[5] = system: rats with spinal cord trauma; assay: Morphologic alterations in the central nervous system in spinal cord trauma; format: in vivo, Wistar rats
Experimental: The study was performed on mature Wistar rats of both sexes with body weight of 180-200 g. The experimental group of 27 rats was subjected to spinal cord trauma.
The animals were injured in the lumbar segment of the spinal cord according to the following method. The lateral surfaces of anesthetized rats' vertebrae on the level of the last rib were compressed through the skin using dressing forceps with a force of 15 kg on the working surfaces. In 24 hours after the trauma the surviving animals were subdivided into 2 groups.
The rats of the second group (control) received sterile physiological saline solution in the same volume.
Neurohistological studies were performed in the animals of both groups on the 30th day of the experiment. For this purpose spinal cord ganglia were taken from the spots of injury and above the injured spots, as well as lumbar and cervical segments of the spinal cord and motor cortex fragments and pyramid tracts of the brain. Neurohistological studies were performed using electronic and luminous microscopy.
The samples intended for luminous microscopy were fixed in 96% spirit and 10% formalin, then packed into celloidin with subsequent staining with hematoxylin-eosine, as well as staining by Nissle, Van Gison, Weigert, Spielmeyer. The samples were fixed and cut in accordance with conventional methods of histological processing and staining of the samples.
The samples intended for electronic microscopy were fixed by 2% osmic acid with cacodylate buffer, then packed in Epon 812 and contrasted in lead […] by Reynolds. The preliminary evaluation of the samples was performed using semifine sections. Ultrafine sections were studied using electronic microscope UEM-100SKh.

[6] = system: rat brain cortex in hypoxia; assay: Free radical oxidation reactions in rat brain cortex in hypoxia; format: in vivo, white mongrel rats
Experimental: The study was performed on 18 white mongrel rats. Peptide H-Glu-Asp-Arg-OH was administered to the animals intraperitoneally, in the dose of 1 μg in 1.0 ml of sterile physiological 0.9% NaCl solution once a day for 10 days. 24 hours after the completion of peptide administration the animals were subjected to hypoxic hypoxia. Hypoxia was modeled in the altitude chamber of flow-ejector type, the atmosphere pressure in the chamber being 0.029 MPa, which corresponds to the altitude of 9000 m above sea level. Compression and decompression rate made 0.005 MPa per minute. Carbon dioxide and moisture absorbent was present in the altitude chamber. The animals were held in the chamber for 3 hours in the conditions of free conduct and under constant observation.
The intensity of peroxide lipid oxidation (POL) was estimated judging by the level of initial POL products, i.e. diene conjugates, and terminal products, i.e. Schiff's bases, playing a significant role in neurons damage. The level of protein peroxidation was estimated by the level of carbonyl derivative amino acids in proteins after interaction with 2,4-dinitrophenylhydrazine.

[7] = system: isolated neurons of Astacus leptodactilus crayfish; assay: Life span of isolated crayfish neurons; format: cell-based; conditions: 10 μg/ml
Experimental: Isolated neurons of Astacus leptodactilus crayfish for the in vitro study of peptide H-Glu-Asp-Arg-OH on their life span were extracted by axotomia, being regarded as a model of cell death by apoptosis.
Stretching receptor neurons of a crayfish closely resemble central neurons of vertebrals by their electrophysiological, biological and structure properties. They generate spikes with nearly constant rate during 10-15 hours. Two symmetrical neurons (control and experimental) extracted from the abdominal segment were placed into 2 ml chambers filled with Harreveld's solution. Neuronal potentials were registered extracellularly on the axons by fastened glass pipette electrodes, then amplified and recorded using H-338 recorder. At the same time the frequency of action potentials was registered using two-channel analog frequency meter and H-339 data recorders. In the beginning of the experiment impulse frequency of experimental and control neurons was set on the level of 10-15 Hz by the stretching of the muscle. After 1 hour of stabile spike generation with constant rate peptide H-Glu-Asp-Arg-OH in the concentration of 10 μg/ml was added into the experimental chamber. The activity of the neurons was constantly recorded before the spontaneous termination of spikes generation. Life span of neurons was compared for each couple. Altogether 10 couples of neurons were used.

[8] = system: patients with remote consequences of cranial trauma; assay: Efficacy in patients with consequences of cranial trauma (clinical result, corrective test, EEG alpha index); format: in vivo; conditions: patients of the main groups after treatment
Experimental: This study was performed on 25 patients aged 31-60 with remote consequences of cranial trauma, who were randomly subdivided into 2 groups. These patients sustained cranial traumas from 1 to 10 years ago. Main group patients were subdivided into 3 groups depending on the severity of their cranial trauma. Patients with the most severe consequences of cranial trauma received the pharmaceutical composition containing peptide H-Glu-Asp-Arg-OH once a day, intramuscularly, in the dose of 5.0 mg in 1 ml of sterile 0.9% NaCl solution for 10 days. Main group patients with cranial trauma consequences of intermediate severity were treated with the pharmaceutical composition containing peptide H-Glu-Asp-Arg-OH once a day, intramuscularly, in the dose of 10.0 μg in 1 ml of sterile 0.9% NaCl solution for 10 days. Main group patients with mild consequences of cranial trauma received the pharmaceutical composition containing peptide H-Glu-Asp-Arg-OH once a day, intramuscularly, in the dose of 1.0 μg in 1.0 ml of sterile 0.9% NaCl solution for 10 days.
The efficacy of the pharmaceutical composition containing H-Glu-Asp-Arg-OH peptide was estimated judging by the effect on integral function of the brain, i.e., attention, and on bioelectric activity of the brain using the corrective test and electroencephalogram.
The evaluation of the effect of pharmaceutical composition containing peptide H-Glu-Asp-Arg-OH on bioelectric activity of the brain was performed by means of calculating the alpha index before and after the treatment.

[9] = system: male guinea pigs; conditions: guinea pig, in vivo
Experimental: (§1) The studies of chronic toxicity were conducted for 6 months, basing on the term of recommended clinical administration of the substance, on 84 male guinea pigs with body weight of 270-310 g. Experimental animals received the peptide daily, once a day, intramuscularly, for 6 months in the doses of 1 μg/kg, 0.1 mg/kg, 1 mg/kg in 0.5 ml of sterile 0.9% NaCl solution. Control animals received sterile 0.9% NaCl solution in the same volume and by the same schedule. Traditional methods were used for the evaluation of the following indices of the animals' peripheral blood: the quantity of erythrocytes, hemoglobin, reticulocytes, thrombocytes, leukocytes, leukocyte formula, erythrocyte sedimentation rate (ESR), erythrocyte resistance. Alongside with that, the content of total protein in the serum was identified using Lowry's method, as well as potassium and sodium content using the method of plasma spectrophotometry. After the completion of the experiment pathomorphologic studies of animal brain and spinal cord, spinal cord ganglia, thyroid gland, parathyroid glands, adrenal glands, testis, pituitary body, heart, lungs, aorta, liver, kidneys, urinary bladder, pancreas, stomach, small intestine, large intestine, thymus, spleen, lymph nodes and bone marrow were performed.

[10] = system: male guinea pigs; assay: Study of chronic toxicity, 6 months; conditions: guinea pig, in vivo
Experimental: as §1

[11] = 10 μg/kg intramuscularly daily for 10 days, 30th day
[12] = 1 μg intraperitoneally once a day for 10 days, then hypoxia

N=C(N)NCCC[C@H](NC(=O)[C@H](CC(=O)O)NC(=O)[C@@H](N)CCC(=O)O)C(=O)O [peptide H-Glu-Asp-Arg-OH, glutamyl-aspartyl-arginine] (H-Glu-Asp-Arg-OH)
toxic reactions [1]: does not cause toxic reactions
side effects, subacute toxicity [2]: absence of any side effects
Area index (AI) growth as compared to the control ([3]; 10 ng/ml, 3rd day of cultivation, statistically significant): 37%
neurites stimulation of cortex explants ([3]; after 7 days of cultivating, same concentrations): same effects of neurites stimulation
time of holding on to the rod relative to the control (rotating rod test) ([4]; 48 hours after the trauma, 10 μg/kg intramuscularly): more than 2 times
number of animals capable of learning relative to the control ([4]; 96 hours after the trauma, 10 μg/kg intramuscularly, CAAR test): 2 times
indices of the animals' learning ability ([4]; by the 14th day after the trauma): close to normal values
indices of learning ability ([4]; in 30 days, 10 μg/kg intramuscularly): higher than in the control
alterations in nerve cells and outgrowths of upper spinal cord segments [5, 11]: less pronounced
neuronal cell cytoplasm, electronic microscopy [5, 11]: signs of restoration in the neuronal cells cytoplasm
type of neuronal alterations in the spinal cord at the injury spot ([5]; 10 μg/kg intramuscularly daily for 10 days, 30th day, luminous microscopy, control showed much more heavy and ischemic alterations): mainly “primarily irritated” cells
effect on spinal cord neurons regeneration ([5]; animals with spinal cord trauma): stimulating effect on spinal cord neurons regeneration
Diene conjugates [6, 12]: 28.57 ± 1.84 nmole/g of tissue
Level of proteins peroxidation [6, 12]: 4.68 ± 0.07 μmole/mg of protein
Schiff's bases [6, 12]: 255.4 ± 26.8 conv. units/g of tissue
change in Schiff's bases content ([6]; hypoxia, vs control): tendency towards a decrease
change in the level of diene conjugates ([6]; hypoxia, vs control): statistically significant decrease
protein peroxidation ([6]; hypoxia, vs control): inhibited protein peroxidation
Life span of isolated crayfish neurons ([7]; control 11.9 hours): 13.7 h and 13.7 ± 0.2 h
prolongation of the life span of isolated neurons ([7]; vs control): 15%
Number of mistakes (corrective test) ([8]; before treatment 12.6 ± 1.3): 6.4 ± 1.1
Alpha index (EEG) ([8]; before treatment 35.7 ± 4.6): 47.9 ± 3.1
Number of registered signs (corrective test) ([8]; before treatment 1519.1 ± 141.7): 2429.6 ± 105.3
changes in blood morphology and biochemical indices [9]: no statistically significant changes
side effects, chronic toxicity [9]: absence of any side effects
pathologic alterations in the organism (general status, blood indices, organ morphology, cardiovascular, respiratory, liver and kidney functions) [10]: no pathologic alterations
